For one assay, the system named is ICR mice. The assay can be described thus: Elevated plus maze experiment in mice, single administration. It counts as in vivo. Particulars: for OE % / OT %: comparative study (Table 13), 20 mg/kg i.g., 30 min after single administration; for anxiolytic activity in elevated plus maze vs solvent control group: comparative study, single intragastric administration of 20 mg/kg. As for the experimental part:
50 male ICR mice were randomly divided into 5 groups (a solvent control group, estazolam group, M2 high dosage group, M2 medium dosage group, M2 low dosage group), with 10 mice in each group. The compound M2 high, medium and low dosage groups were intragastrically administered at 20 mg/kg. 10 mg/kg and 5 mg/kg, respectively; the positive drug estazolam was intragastrically administered at 2.5 mg/kg; and the solvent control group was gavaged with an equal volume of solvent. Behavior test was performed in each group 30 min after single administration. The experiments were required to be conducted between 8:00 am and […], and all animals entered the test laboratory on the previous day.
The laboratory was dimly lit (with the lowest brightness that can distinguish the subtle activities of mice at a distance of 1.5 m) and the brightness was kept constant, with a room temperature of about 20° C., and kept quiet. Before the maze test, each mouse was placed in a 35 cm*10 cm*5 cm plastic box and left to explore freely for 5 min and then quickly placed at the central platform of an elevated plus maze, with its head facing one of the open arms, and the following indexes were recorded upon release. Each mouse was tested for 5 min. Observers observed and recorded animal activities at a distance of 1.5 m. At intervals, the maze was wiped with a wet cloth to remove feces, and then wiped with a dry cloth before a next mouse was tested.
• (1) The number of open arm entries (OE): the number of entries into any open arm, based on the fact that all four claws of the mouse entered the arm, and a complete exit of one claw from the arm indicated the completion of the entry activity; • (2) open arm time (OT): the time of entering an open arm, with the unit of seconds; • (3) the number of close arm entries (CE): the number of entries into any close arm, based on the fact that all four claws of the mouse entered the arm; • (4) close arm time (CT): the time of entering a close arm, with the unit of seconds; • (5) percentage of open arm time: OT %=OT/(OT+CT)*100%; and • (6) percentage of open arm entries: OE %=OE/(OE+CE)*100%.
70 male ICR mice were randomly divided into 7 groups (a solvent control group, estazolam group, compound M2 group, compound II-3 group, compound II-4 group, compound II-5 group, and compound II-10 group), with 10 mice in each group. The dosage of M2 and its four structurally similar compounds was determined as 20 mg/kg according to the experimental results of 3.1: the positive drug estazolam was administered intragastrically at 2.5 mg/kg; and the solvent control group was gavaged with an equal volume of solvent. Behavior test was performed in each group 30 min after single administration. The experiments were required to be conducted between 8:00 am and […], and all animals entered the test laboratory on the previous day.
The behavioral test method and behavioral observation indexes were the same as those in 3.1.
(§1) Data was expressed as mean±standard (mean±SD) difference, and statistics of data differences were made by one-way analysis of variance (ANOVA) or nonparametric test, and differences between groups were determined by P<0.05.

For the next assay, the system named is SD rats. The assay can be described thus: Vogel drinking conflict experiment in rats, single administration. It counts as in vivo. The following applies: for Number of times of drinking water: 10 mg/kg i.g., 30 min after single dose, punishment stage 3 min, n = 8. How it is done:
75 male SD rats, with the body weight of 180-220 g, were fed adaptively for 1 week, water deprived for 24 h for training period test. The animals screened to be qualified were randomly divided into 7 groups (a solvent control group, estazolam group, compound M2 group, compound II-3 group, compound II-4 group, compound II-5 group and compound II-10 group) according to their body weight, with 8 rats in each group. […] results of 3.1: the positive drug estazolam was administered intragastrically at 1.24 mg/kg; and the solvent control group was gavaged with an equal volume of solvent. The grouped animals were continued to be water deprived for 24 h and were given a single dose, and tested in a punishment experiment 30 min after the single dose.
The experiment was carried out in two stages. The first stage is a training stage, in which 24 h after water deprivation, animals were placed in an operation box separately, and were allowed to fully explore until they found the bottle mouth and started to lick water (with an intensity of electric shock being 0 mA), a counter automatically recorded the number of licks within 3 min, and the animals that licked water less than 300 times were eliminated.
Observation index: the number of water licks of rats in the punishment stage.
as §1

The test system of assay [1] is mice. Particulars: 10 mg/kg for 7 days; cited from earlier work.
Assay [2] concerns mice. The following applies: 10 mg/kg continuously for 7 days; cited from earlier work.
The subject of assay [3] is mice. Particulars: mouse, in vivo; cited from earlier work.
Assay [4] has as its system mice. The following applies: Patent C; cited from earlier work.

We go through 2 compounds from patent US20240217946A1, “ANTIDEPRESSANT AND ANXIOLYTIC SUBSTITUTED CINNAMAMIDE COMPOUND” (TASLY PHARMACEUTICAL GROUP CO., LTD., priority 2021, published 2024).

As to `O=C(/C=C/c1cc2c(c(C(F)(F)F)c1)OCO2)N1CCCCC1` [Compound II-10], in the assay on ICR mice, the OE % was determined as 50.00 ± 10.23 %, the OT % turned out to be 52.08 ± 12.25 % and the “anxiolytic activity in elevated plus maze vs solvent control group” value is given as “significant anxiolytic activity”. The “Number of times of drinking water” value in the assay with SD rats came to 499.61 ± 133.93. The “anxiolytic activity in drinking conflict experiment vs solvent control group” value in the assay on SD rats (single intragastric administration of 20 mg/kg) was “significant anxiolytic activity”. Moreover, the “immobility time of tail suspension in mice” value in the assay on mice [1] was “significantly shorten the immobility time”. Also, the “reserpine-induced body temperature decrease and akinesia in mice, degree of eye closure” value with mice [2] is given as “significantly antagonizing”. Further, the “immobility time of forced swimming in mice” value in the assay on mice [3] was “significantly shorten the immobility time”.
For `CC(C)CNC(=O)/C=C/c1cc(Cl)c2c(c1)OCO2` [Compound II-4], in the assay on ICR mice, the OE % is reported as 46.79 ± 9.31 %, the OT % came to 53.45 ± 8.33 % and the “anxiolytic activity in elevated plus maze vs solvent control group” value is reported as “significant anxiolytic activity”. The “Number of times of drinking water” value with SD rats stood at 387.07 ± 57.31. In the assay with mice [2], the “reserpine-induced body temperature decrease and akinesia in mice, degree of eye closure” value was “significantly antagonizing”. For the same compound, the “effective anxiolytic dosage in mice elevated plus maze experiment” value with mice [4] was 10 mg/kg.
